The record followed here is the supplement of paper PMC6045584.

± gives the standard deviation of the averaged measurements.

Compound in assay [1]: T1, CN1CCN(c2nc(C3=C(c4c[nH]c5ccccc45)C(=O)NC3=O)c3ccccc3n2)CC1 [SOTRASTAURIN/AEB071]
The assay can be described thus: surviving fraction relative to DMSO-only wells; higher = less growth inhibition. Particulars: exposure time: 5 days. In short, it runs like this:
(§1)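 Continuous five-day exposure to inhibitors at 0.5, 1, 5, 10, 50, 100, 500 and 1000 nM started 24 hours after log-phase tumour cell lines were seeded at 250–500 cells per well in 384-well plates. Luminescence was read after 10 minutes at room temperature. Viability is given as surviving fraction, meaning CellTiter-Glo luminescence normalised to the median of DMSO-only wells.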

Compound in assay [2]: CCn1c(C(=O)N(C2CC2)C2CC2)cc2c3c(ncn3C)c(Nc3cc(C)n(C)n3)nc21
The assay is described as above. The following applies: exposure time: 5 days. The method, boiled down: as §1

Compound in another assay: COc1cc2c(Oc3ccc(NC(=O)C4(C(=O)Nc5ccc(F)cc5)CC4)cc3F)ccnc2cc1OCCCN1CCOCC1 [FORETINIB]
Briefly: area under dose-response curve of surviving fraction (unscaled, Aref=0) (surviving fraction x log10(nM)); higher = more resistant. Particulars: exposure time: 5 days; dose range 0.5-1000 nM. The method, boiled down: (§2)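 Surviving fractions were fitted by 3-parameter logistic regression in the drc R package to give dose-response survival curves. They came from tumour cell lines treated for five days with eight inhibitor concentrations from 0.5 to 1000 nM and read by CellTiter-Glo luminescence against DMSO-only wells. The area under the curve is the unscaled activity area. It was calculated over log10 dose with Aref = 0.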

Compound in assay [3]: T1, SOTRASTAURIN/AEB071
The assay is described as above. Particulars: exposure time: 5 days; dose range 0.5-1000 nM. In short, it runs like this: as §2

Compound in assay [4]: CCn1c(C(=O)N(C2CC2)C2CC2)cc2c3c(ncn3C)c(Nc3cc(C)n(C)n3)nc21
The assay is described as above. Particulars: exposure time: 5 days; dose range 0.5-1000 nM. In short, it runs like this:
as §2

Compound in the next assay: C[C@@H](Oc1cc(-c2cnn(C3CCNCC3)c2)cnc1N)c1c(Cl)ccc(F)c1Cl [CRIZOTINIB]
The assay is described as above. The following applies: exposure time: 5 days; dose range 0.5-1000 nM. The method, boiled down:
as §2

HCC38 BREAST: the surviving fraction with SOTRASTAURIN/AEB071 [1] (0.5 nM) came out at 0.974 ± 0.11; with SOTRASTAURIN/AEB071 [1] (1 nM), 0.913 ± 0.14; with SOTRASTAURIN/AEB071 [1] (5 nM), 1.02 ± 0.16; in the assay with SOTRASTAURIN/AEB071 [1] (10 nM), 1.16 ± 0.23; with SOTRASTAURIN/AEB071 [1] (50 nM), 0.851 ± 0.19; with SOTRASTAURIN/AEB071 [1] (100 nM) it was 0.874 ± 0.042. Also, the surviving fraction with SOTRASTAURIN/AEB071 [1] (500 nM) was determined as 0.759 ± 0.11; in the assay with SOTRASTAURIN/AEB071 [1] (1000 nM) it was 0.805 ± 0.12; in assay [2] (0.5 nM), 1.26 ± 0.17; in assay [2] (1 nM) it was 1.2 ± 0.084; in assay [2] (5 nM), 1.28 ± 0.02; in assay [2] (10 nM), 1.14 ± 0.063. For the same test system, the surviving fraction in assay [2] (50 nM) amounted to 1.19 ± 0.11; in assay [2] (100 nM), 1.23 ± 0.099; in assay [2] (500 nM), 1.22 ± 0.18; in assay [2] (1000 nM) it was 1.24 ± 0.17. In addition, the “area under dose-response curve” value with FORETINIB is 2.93; with SOTRASTAURIN/AEB071 [3], 3.03.

With HMLE3 BREAST, the surviving fraction with SOTRASTAURIN/AEB071 [1] (0.5 nM) amounted to 1.11 ± 0.098; in the assay with SOTRASTAURIN/AEB071 [1] (1 nM), 1.1 ± 0.057; with SOTRASTAURIN/AEB071 [1] (5 nM), 1.15 ± 0.034; with SOTRASTAURIN/AEB071 [1] (10 nM), 1.13 ± 0.061; with SOTRASTAURIN/AEB071 [1] (50 nM) it was 1.12 ± 0.087; in the assay with SOTRASTAURIN/AEB071 [1] (100 nM), 1.02 ± 0.078. Further, the surviving fraction came out at 0.961 ± 0.12 with SOTRASTAURIN/AEB071 [1] (500 nM); 0.831 ± 0.084 in the assay with SOTRASTAURIN/AEB071 [1] (1000 nM); 0.951 ± 0.038 in assay [2] (0.5 nM); 0.942 ± 0.037 in assay [2] (1 nM); 0.977 ± 0.09 in assay [2] (5 nM); 0.949 ± 0.072 in assay [2] (10 nM). For the same test system, the surviving fraction in assay [2] (50 nM) is 0.953 ± 0.088; in assay [2] (100 nM), 0.956 ± 0.061; in assay [2] (500 nM), 0.914 ± 0.036; in assay [2] (1000 nM), 0.906 ± 0.056. In addition, the “area under dose-response curve” value in the assay with FORETINIB came out at 2.9; in assay [4], 3.12.

In the case of HMT3552 BREAST, the surviving fraction with SOTRASTAURIN/AEB071 [1] (0.5 nM) is 0.982 ± 0.13; with SOTRASTAURIN/AEB071 [1] (1 nM), 0.975 ± 0.012; with SOTRASTAURIN/AEB071 [1] (5 nM) it was 0.984 ± 0.037; with SOTRASTAURIN/AEB071 [1] (10 nM) it was 1.04 ± 0.04; in the assay with SOTRASTAURIN/AEB071 [1] (50 nM) it was 1.03 ± 0.059; in the assay with SOTRASTAURIN/AEB071 [1] (100 nM) it was 1.04 ± 0.013. In addition, the surviving fraction with SOTRASTAURIN/AEB071 [1] (500 nM) is 1.3 ± 0.11; in the assay with SOTRASTAURIN/AEB071 [1] (1000 nM) it was 1.24 ± 0.06; in assay [2] (0.5 nM), 0.943; in assay [2] (1 nM) it was 0.942; in assay [2] (5 nM), 1.08; in assay [2] (10 nM), 1.03. In addition, the surviving fraction in assay [2] (50 nM) worked out at 1.23; in assay [2] (100 nM) it was 1.18; in assay [2] (500 nM) it was 1.18; in assay [2] (1000 nM), 1.27. Moreover, the “area under dose-response curve” value was found to be 2.99 with FORETINIB and 3.05 with CRIZOTINIB.

Regarding HS578T BREAST, the surviving fraction in the assay with SOTRASTAURIN/AEB071 [1] (0.5 nM) is 0.899 ± 0.11; in the assay with SOTRASTAURIN/AEB071 [1] (1 nM) it was 0.861 ± 0.083; with SOTRASTAURIN/AEB071 [1] (5 nM), 0.977 ± 0.27; with SOTRASTAURIN/AEB071 [1] (10 nM), 0.954 ± 0.11; with SOTRASTAURIN/AEB071 [1] (50 nM), 1.06 ± 0.16; with SOTRASTAURIN/AEB071 [1] (100 nM) it was 0.916 ± 0.057. Moreover, the surviving fraction with SOTRASTAURIN/AEB071 [1] (500 nM) was 0.877 ± 0.064; with SOTRASTAURIN/AEB071 [1] (1000 nM), 1.01 ± 0.17; in assay [2] (0.5 nM), 1.13 ± 0.053; in assay [2] (1 nM), 0.828 ± 0.05; in assay [2] (5 nM), 1 ± 0.12; in assay [2] (10 nM), 1.01 ± 0.15. Besides, the surviving fraction in assay [2] (50 nM) was determined as 0.821 ± 0.06; in assay [2] (100 nM), 1.09 ± 0.15; in assay [2] (500 nM) it was 0.999 ± 0.049; in assay [2] (1000 nM), 0.989 ± 0.073. In addition, the “area under dose-response curve” value was found to be 3.13 in the assay with SOTRASTAURIN/AEB071 [3] and 3.19 in assay [4].

Consider HCC70 BREAST, for which the surviving fraction with SOTRASTAURIN/AEB071 [1] (0.5 nM) was 1.17 ± 0.049; in the assay with SOTRASTAURIN/AEB071 [1] (1 nM), 1.05 ± 0.073; with SOTRASTAURIN/AEB071 [1] (5 nM), 1.1 ± 0.046; in the assay with SOTRASTAURIN/AEB071 [1] (10 nM) it was 1.14 ± 0.02; with SOTRASTAURIN/AEB071 [1] (50 nM), 1.15 ± 0.024; with SOTRASTAURIN/AEB071 [1] (100 nM) it was 1.18 ± 0.038. Moreover, the surviving fraction was found to be 1.25 ± 0.029 with SOTRASTAURIN/AEB071 [1] (500 nM); 1.22 ± 0.06 with SOTRASTAURIN/AEB071 [1] (1000 nM); 0.976 ± 0.033 in assay [2] (0.5 nM); 0.984 ± 0.15 in assay [2] (1 nM); 1.03 ± 0.093 in assay [2] (5 nM); 0.97 ± 0.041 in assay [2] (10 nM). For the same test system, the surviving fraction in assay [2] (50 nM) was determined as 1.055 ± 0.0098; in assay [2] (100 nM), 1.06 ± 0.055; in assay [2] (500 nM), 0.939 ± 0.026; in assay [2] (1000 nM), 0.946 ± 0.068. Besides, the “area under dose-response curve” value with FORETINIB came to 3.69; with SOTRASTAURIN/AEB071 [3], 3.82; in the assay with CRIZOTINIB, 3.69; in assay [4], 3.28.

G292 BONE: the surviving fraction in the assay with SOTRASTAURIN/AEB071 [1] (0.5 nM) amounted to 1.04 ± 0.016; with SOTRASTAURIN/AEB071 [1] (1 nM), 1.002 ± 0.0081; with SOTRASTAURIN/AEB071 [1] (5 nM) it was 1.04 ± 0.057; with SOTRASTAURIN/AEB071 [1] (10 nM), 1.01 ± 0.025; with SOTRASTAURIN/AEB071 [1] (50 nM), 1.02 ± 0.072; with SOTRASTAURIN/AEB071 [1] (100 nM), 0.987 ± 0.077. The surviving fraction is 0.969 ± 0.024 with SOTRASTAURIN/AEB071 [1] (500 nM); 0.982 ± 0.046 with SOTRASTAURIN/AEB071 [1] (1000 nM); 0.983 ± 0.044 in assay [2] (0.5 nM); 0.978 ± 0.019 in assay [2] (1 nM); 1.01 ± 0.056 in assay [2] (5 nM); 1.01 ± 0.038 in assay [2] (10 nM). For the same test system, the surviving fraction in assay [2] (50 nM) is 1.03 ± 0.04; in assay [2] (100 nM), 1.028 ± 0.0063; in assay [2] (500 nM), 0.952 ± 0.021; in assay [2] (1000 nM) it was 0.97 ± 0.036. The “area under dose-response curve” value with FORETINIB was 2.74; with SOTRASTAURIN/AEB071 [3] it was 3.33; with CRIZOTINIB, 3; in assay [4] it was 3.3.
